Results: article PMC9127750, “Structure-based design of CDC42 effector interaction inhibitors for the treatment of cancer” (Cell reports, 2022)
Several values for one entry are separate records, joined by “and”; a condition that tells them apart may be missing. Equal entries are not always repeated.

System: WM3248 melanoma cells, 486 antibodies
Test: Reverse phase protein arrays (RPPA);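 as to Cyclin.E1.R.V RPPA level: ratio of treated to vehicle (0 µM) normalized linear protein signal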;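 as to DDB.1.R.V RPPA level: ratio of treated to vehicle (0 µM) normalized linear protein signal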
Format: cell-based, Human
Conditions: 20 uM
Source text: Pellets were snap frozen in liquid nitrogen and shipped to MD Anderson Cancer Center core RPPA facility for RPPA analysis (Table S5). Three biological replicates for each sample were generated.
Nomenclatures on the RPPA heatmaps: name_of_antibody.species_of_antibody.status_of_antibody. V - antibody validated; C - validation of antibody in progress; Q - antibody nonspecific; E – under evaluation; antibodies raised in M - mouse, G - goat, R - rabbit, or T - rat.

SMILES: CN(C)c1cccc(Nc2cc(-c3ccccc3)nc(C3CCNCC3)n2)c1 [ARN22089, N1,N1-dimethyl-N3-(6-phenyl-2-(piperidin-4-yl)pyrimidin-4-yl)benzene-1,3-diamine]
- Cyclin.D3.M.V RPPA level (replicates): 0.858 and 0.793 and 0.870
- Cyclin.E1.R.V RPPA level (replicates): 1.034 and 0.978 and 0.864
- Cyclophilin.F.M.V RPPA level (replicates): 1.052 and 0.867 and 0.858
- D.a.Tubulin.R.V RPPA level (replicates): 0.908 and 1.131 and 1.049
- DAPK1_pS308.M.C RPPA level (replicates): 1.387 and 1.152
- DAPK2.R.C RPPA level (replicates): 0.896 and 1.008 and 1.104
- DDB.1.R.V RPPA level (replicates): 1.000 and 0.862 and 0.981
- DDR1.R.V RPPA level (replicates): 1.126 and 0.892 and 0.988
- DDR1_pY513.R.C RPPA level (replicates): 1.221 and 1.216 and 0.940
- DJ1.R.V RPPA level (replicates): 0.994 and 0.831 and 1.019
- DM.Histone.H3.R.V RPPA level (replicates): 4.051 and 0.967
- DM.K9.Histone.H3.M.V RPPA level (replicates): 1.226 and 2.170 and 0.946
- DNA.Ligase.IV.R.C RPPA level (replicates): 0.890 and 0.918 and 1.135
- DNA_POLG.R.V RPPA level (replicates): 1.260 and 0.956 and 0.859
- c.Jun_pS73.R.V RPPA level (replicates): 0.959 and 1.053 and 0.897
- c.Kit.R.V RPPA level (replicates): 1.404 and 1.046 and 0.973
- c.Met_pY1234_Y1235.R.V RPPA level (replicates): 0.958 and 1.104 and 1.130
- c.Myc.R.C RPPA level (replicates): 0.956 and 0.888 and 0.971
- cGAS.R.V RPPA level (replicates): 1.158 and 0.984
- cdc2_pY15.R.C RPPA level (replicates): 0.840 and 1.245 and 1.217
- cdc25C.R.V RPPA level (replicates): 0.813 and 0.749 and 1.085
- RPPA MYH11.R.C (single replicates): 1.235 and 1.080 and 0.987
- RPPA Myosin.IIa.R.C (single replicates): 0.819 and 0.811 and 1.194
- RPPA Myosin.IIa_pS1943.R.V (single replicates): 1.011 and 0.857 and 1.050
- RPPA Myt1.R.C (single replicates): 0.843 and 1.001 and 1.193
- RPPA N.Cadherin.R.V (single replicates): 1.047 and 1.081 and 0.976
- RPPA N.Ras.M.V (single replicates): 0.921 and 0.893 and 0.971
- RPPA NAPSIN.A.R.C (single replicates): 0.982 and 1.016 and 1.141
- RPPA NDRG1_pT346.R.V (single replicates): 0.868 and 0.915 and 1.192
- RPPA NDUFB4.R.V (single replicates): 1.100 and 0.998 and 0.982
- RPPA NRF2.R.C (single replicates): 0.849 and 0.982 and 0.977
- RPPA Notch1.R.V (single replicates): 1.052 and 1.121 and 0.952
- RPPA Notch1.cleaved.R.V (single replicates): 0.740 and 0.849 and 1.080
- RPPA Notch3.R.C (single replicates): 1.026 and 1.150 and 0.931
- RPPA Oct.4.R.C (single replicates): 0.991 and 1.164 and 1.209
- RPPA P.Cadherin.R.C (single replicates): 1.264 and 1.125
- RPPA PAI.1.M.V (single replicates): 1.005 and 1.281 and 0.932
- RPPA PAICS.R.C (single replicates): 0.803 and 0.811 and 1.058
- RPPA PAK1.R.V (single replicates): 0.820 and 0.886 and 1.049
- RPPA PAK4.R.V (single replicates): 1.076 and 0.939
- RPPA PAK_pS474_S602_S560.R.V (single replicates): 1.380 and 1.298 and 0.931
- RPPA PAK_pT423_T402.R.C (single replicates): 1.015 and 1.053 and 0.971
- RPPA PAR.R.C (single replicates): 0.974 and 1.464 and 0.714
- RPPA PARG.R.C (single replicates): 1.599 and 1.316 and 1.014
- RPPA PARP.R.V (single replicates): 0.538 and 1.057 and 1.348
- RPPA PAX6.R.V (single replicates): 1.001 and 1.058 and 0.982
- RPPA PAX8.R.C (single replicates): 1.024 and 0.925 and 0.962
- RPPA PCNA.M.C (single replicates): 0.783 and 0.854 and 0.955
- RPPA PD.1.R.V (single replicates): 1.098 and 1.052 and 0.984
- RPPA PD.L1.R.C (single replicates): 0.895 and 1.054 and 1.001
- RPPA PDH.M.V (single replicates): 0.970 and 1.058 and 0.953
- RPPA PDHA1.R.V (single replicates): 0.972 and 1.004 and 1.113
- RPPA PDHK1.R.C (single replicates): 0.803 and 0.959 and 1.129
- RPPA PDK1.R.V (single replicates): 1.000 and 1.250
- RPPA PDK1_pS241.R.V (single replicates): 0.916 and 0.898 and 1.103
- RPPA PEA.15.R.V (single replicates): 0.986 and 0.870 and 0.999
- RPPA PEA.15_pS116.R.V (single replicates): 1.029 and 0.986
- RPPA PERK.R.V (single replicates): 1.320 and 0.802 and 0.841
- RPPA PGM1.R.V (single replicates): 0.846 and 0.933
- RPPA PHGDH.R.C (single replicates): 0.989 and 0.962
- RPPA PHLPP.R.V (single replicates): 1.674 and 0.930 and 0.767
- RPPA PI3K.p85.R.C (single replicates): 1.023 and 0.792 and 0.886
- RPPA PI3K.p110.a.R.C (single replicates): 0.804 and 0.921
- RPPA PI3K.p110.b.M.C (single replicates): 0.988 and 0.918 and 0.941
- RPPA PKA.a.R.V (single replicates): 0.974 and 0.780 and 1.028
- RPPA PKC.a.b.II_pT638_T641.R.V (single replicates): 0.684 and 0.941 and 1.154
- RPPA PKC.b.II_pS660.R.V (single replicates): 0.997 and 1.114 and 1.126
- RPPA PKCa.R.V (single replicates): 0.630 and 2.106 and 1.942
- RPPA PKM2.R.C (single replicates): 0.846 and 0.763
- RPPA PLC.gamma1.R.V (single replicates): 1.296 and 0.944 and 0.963
- RPPA PLC.gamma1_pS1248.R.V (single replicates): 0.837 and 0.893 and 0.954
- RPPA PLC.gamma2_pY759.R.V (single replicates): 1.000 and 1.004 and 0.945
- RPPA PLK1.R.C (single replicates): 1.107 and 0.592 and 1.060
- RPPA PMS2.R.V (single replicates): 1.016 and 0.991 and 0.952
- RPPA PR.R.V (single replicates): 0.957 and 0.966 and 0.945
- RPPA PRAS40.M.C (single replicates): 1.496 and 1.229 and 0.955
- RPPA PRAS40_pT246.R.V (single replicates): 1.099 and 1.166
- RPPA PRC1_pT481.R.C (single replicates): 1.163 and 1.114 and 0.975
- RPPA PREX1.R.V (single replicates): 0.874 and 0.851 and 1.124
- RPPA PTEN.R.V (single replicates): 1.018 and 1.109 and 1.120
- RPPA PTPN12.R.V (single replicates): 1.234 and 1.447
